Tests used:
gastric mucosa = experiment: gastric mucosal injury induced by ethanol (action of protecting gastric mucosa); format: in vivo, Male Sprague-Dawley rats; conditions: Rattus norvegicus, po; 6 rats per group; doses 3, 10 and 30 mg/kg; 30 min before 1 ml of 100% ethanol; read-out: Action of protecting gastric mucosa ID50
Protocol: As a method of determining the ability to protect gastric mucosa, gastric mocosal injury induced by ethanol [Robert A., Gastroenterology 77, 761 (1979)] is often used. This method was applied to evaluation of the compounds of this invention. Male Sprague-Dawley rats 7-weeks old were fasted for 24 hours. These animals were administered test compounds into the stomach by using a gastric tube. After 30 minutes, 1 ml of 100% ethanol was administered orally. The animals were killed by carbon dioxide gas 60 minutes after ethanol administration. The stomach was removed together with the lower part of esophagus and the duodenum. The esophagus was clipped, 10 ml of 1% formalin solution was instilled into the stomach from the duodenum, and then the duodenum was clipped. The whole stomach was immersed in 1% formalin solution. About 15 minutes later, the stomachs were opened along the greater curvature. Length of the lesions which occurred in the gastric corpus mucosa was measured under a dissecting microscope with a square-grid eye piece (×10). The sum total length of the individual lesions in each animal was measured, and the average value per group was calculated. Based on the difference between the average value of each group and that of the control group, the inhibition rate was determined. The test compound was suspended in a 5% gum arabic solution, and administered in a volume of 2 ml/kg. | administered in a dose of 3, 10 and 30 mg/kg to determine ID50.

oral toxicity in mice = format: in vivo; conditions: oral administration, 500 mg/kg

Structure (SMILES) | ED50 (gastric mucosa) [mg/kg] | fatal effect (oral toxicity in mice)
COc1ccnc(C[S+]([O-])c2nc3cc(C(F)(F)F)ccc3[nH]2)c1C (stereo not shown) [5-CF3, CH3, CH3, H, reference compound] | 24 | –
COc1ccc2[nH]c([S+]([O-])Cc3ncc(C)c(OC)c3C)nc2c1 (stereo not shown) [5-OCH3, CH3, CH3, CH3, reference compound] | 22 | –
COc1ccnc(C[S+]([O-])c2nc3ccccc3[nH]2)c1OC (stereo not shown) [Example 6, 2-[(3,4-dimethoxypyrid-2-yl)methylsulfinyl]benzimidazole] | 3.2 | no fatal effect
COc1ccnc(C[S+]([O-])c2nc3ccc(C(F)(F)F)cc3[nH]2)c1OC (stereo not shown) [Example 9, 2-[(3,4-dimethoxypyrid-2-yl)methylsulfinyl]-5-trifluoromethylbenzimidazole] | 3 | –
COc1c(OCC(F)(F)F)ccnc1C[S+]([O-])c1nc2ccccc2[nH]1 (stereo not shown) [Example 18, 2-[[3-methoxy-4-(2,2,2-trifluoroethoxy)pyrid-2-yl]methylsulfinyl]benzimidazole] | 6.2 | no fatal effect
